Assay [1] concerns the target T1, Dopamine beta-hydroxylase (Bos taurus, UniProt P15101).
T1 sequence (P15101 whole entry): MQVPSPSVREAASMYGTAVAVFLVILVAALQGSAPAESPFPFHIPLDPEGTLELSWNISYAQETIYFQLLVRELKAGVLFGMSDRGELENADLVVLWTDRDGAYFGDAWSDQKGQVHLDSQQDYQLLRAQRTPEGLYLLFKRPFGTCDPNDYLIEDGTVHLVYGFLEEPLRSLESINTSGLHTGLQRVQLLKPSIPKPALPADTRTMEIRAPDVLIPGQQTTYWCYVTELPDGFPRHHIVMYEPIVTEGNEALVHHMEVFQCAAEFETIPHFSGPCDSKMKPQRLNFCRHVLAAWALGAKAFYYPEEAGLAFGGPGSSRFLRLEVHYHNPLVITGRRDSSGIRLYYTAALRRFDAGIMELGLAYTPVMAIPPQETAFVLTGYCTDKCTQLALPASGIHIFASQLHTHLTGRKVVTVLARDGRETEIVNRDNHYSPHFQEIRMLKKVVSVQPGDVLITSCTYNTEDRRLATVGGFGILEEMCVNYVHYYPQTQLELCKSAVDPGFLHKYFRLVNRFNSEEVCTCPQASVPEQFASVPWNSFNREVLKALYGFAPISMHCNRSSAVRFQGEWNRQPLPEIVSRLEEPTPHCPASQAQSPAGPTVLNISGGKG
Put plainly: Inhibition of Dopamine beta hydroxylase.

Assay [2] deals with T2, Dopamine beta-hydroxylase (Bos taurus) (UniProt P15101).
T2 sequence (whole entry): T1 sequence (P15101 whole entry)
Nature of the assay: Inhibition of Dopamine beta hydroxylase at a concentration of 10e-4 M.

Assay [3] addresses T2, Dopamine beta-hydroxylase (Bos taurus). Nature of the assay: Compound was evaluated for the inhibition of Dopamine beta hydroxylase at a concentration of 10e-4 M.
For assay [4], the target named is T1, Dopamine beta-hydroxylase. Put plainly: Compound was evaluated for the inhibition of Dopamine beta hydroxylase at pH 4.5.
The target in assay [5] is T1, Dopamine beta-hydroxylase. Nature of the assay: Compound was evaluated for the inhibition of Dopamine beta hydroxylase at pH 6.6.

For the compound `S=c1[nH]ccn1CCOc1ccccc1`, the IC50 in assay [1] worked out at 87 µM.

In turn, `Oc1ccc(CCCCn2ccnc2S)cc1` registered an inhibition in assay [2] of 12%.

In turn, `COc1ccc(CCn2ccnc2S)cc1` had an IC50 in assay [1] of 68 µM.

The compound `Oc1ccc(-n2ccnc2S)cc1` showed an IC50 in assay [1] of 370 µM.

On to `O=S(=O)(CCn1ccnc1S)c1ccccc1`, for which the inhibition in assay [2] is 5%.

For the compound `NC(=O)C(c1ccccc1)n1ccnc1S` (configuration not stated), the inhibition in assay [2] is 4%.

Regarding `NCC(c1ccccc1)n1ccnc1S` (configuration not stated), in assay [2], the inhibition was 0%.

For `Oc1ccc(CCCCCn2ccnc2S)cc1`, in assay [3], the inhibition was 30%.

In assay [1], `CC(CCn1cc[nH]c1=S)c1ccccc1` (configuration not stated) displayed an IC50 of 18 µM.

Compound `Sc1nccn1-c1ccccc1` displayed an IC50 in assay [1] of 110 µM. Compared with the last compound, the IC50 is about 6.1-fold higher.

For the compound `COc1ccc(CCCCCn2cc[nH]c2=S)cc1`, in assay [1], half-maximal inhibition (IC50) required 109 µM.

For the compound `Sc1nccn1CCCc1ccccc1`, the IC50 in assay [1] was 16 µM.

Compound `COc1ccc(CCCn2cc[nH]c2=S)cc1` had an IC50 in assay [1] of 180 µM.

`OC(Cc1ccccc1)Cn1ccnc1S` (configuration not stated) had an inhibition in assay [2] of 5%.

Turning to `COc1ccc(-n2ccnc2S)cc1`, the inhibition in assay [2] was found to be 25%.

Regarding `CC(Cc1ccccc1)Cn1cc[nH]c1=S` (configuration not stated), half-maximal inhibition in assay [1] (IC50) was put at 29 µM. In other words, the double-digit micromolar range.

As to `Cn1cc[nH]c1=S` [METHIMAZOLE], half-maximal inhibition in assay [1] (IC50) required 754 µM. The values for the Ki in assay [4] and in assay [5] were 45 µM and 716 µM, respectively.

`COc1ccc(CCCCn2cc[nH]c2=S)cc1`: in assay [1], half-maximal inhibition (IC50) was put at 152 µM.

`COc1ccc(Cn2cc[nH]c2=S)cc1`: it took 202 µM to reach half-maximal inhibition in assay [1] (IC50).

On to `CC(CCc1ccccc1)n1ccnc1S` (configuration not stated), for which the IC50 in assay [1] is 325 µM.

The compound `S=c1[nH]ccn1Cc1ccccc1` had an IC50 in assay [1] of 32 µM.

`Oc1ccc(CCCn2cc[nH]c2=S)cc1` registered an IC50 in assay [1] of 2.2 µM. This IC50 is about 15-fold lower than that of the compound before.

`Oc1ccc(Cn2cc[nH]c2=S)cc1` gave a 50% inhibitory concentration (IC50) in assay [1] of 2.6 µM.

With `Oc1ccc(CCn2cc[nH]c2=S)cc1`, the IC50 in assay [1] was 23 µM.

In assay [1], `S=c1[nH]ccn1CCSc1ccccc1` returned an IC50 of 103 µM.

The values are drawn from ChEMBL document CHEMBL1123383, “Multisubstrate inhibitors of dopamine beta-hydroxylase. 1. Some 1-phenyl and 1-phenyl-bridged derivatives of imidazole-2-thione” (J Med Chem, 1986).
